Experimental data reported in ChEMBL document CHEMBL6092219, “Structure-Based Design of Covalent SARS-CoV-2 Papain-like Protease Inhibitors” (J Med Chem, 2024).
The source made the active and inactive calls. The calls are words filed in the database; no cut-off is given here.

Experiments:
[1] = system: SARS-CoV-2; assay: microbe, parasite or virus in culture; format: functional, organism-based; conditions: Severe acute respiratory syndrome coronavirus 2, Caco-2, 24 h
[2] = target: T1, Replicase polyprotein 1ab (Severe acute respiratory syndrome coronavirus 2, UniProt P0DTD1); assay: Inhibition of SARS-CoV-2 PL protease preincubated for 30 mins followed by substrate addition measured after 3 hrs
[3] = system: SARS-CoV-2; assay: microbe, parasite or virus in culture; format: functional, organism-based, Vero E6; conditions: Severe acute respiratory syndrome coronavirus 2, Vero C1008, 24 h
[4] = Metabolic stability in mouse liver microsomes assessed as half life at 1 uM incubated for 60 mins by LC/MS/MS analysis; format: ADME, Microsome; conditions: for half-life at 1 µM: liver microsomes
[5] = (§1) Cytotoxicity against African green monkey Vero E6 cells incubated for 48 hrs by Neutral Red method; format: toxicity, cell-based, Vero C1008; conditions: chlorocebus sabaeus, Vero E6 cells
[6] = system: Vero C1008; assay: as §1; format: toxicity, cell-based; conditions: chlorocebus sabaeus, vero c1008, 48 h
[7] = Cmax in C57BL/6J mouse at 50 mg/kg, po measured 5 hrs by LC/MS/MS analysis; format: ADME, organism-based; conditions: in vivo
[8] = Cmax in C57BL/6J mouse at 50 mg/kg, ip measured 0.5 hrs by LC/MS/MS analysis; format: ADME, organism-based; conditions: in vivo
[9] = AUClast in C57BL/6J mouse at 50 mg/kg, ip measured 5 hrs by LC/MS/MS analysis; format: ADME, organism-based; conditions: in vivo
[10] = target: T1, Replicase polyprotein 1ab; assay: Inhibition of SARS-CoV-2 PL protease using ISG15-AMC as substrate preincubated for 30 mins followed by substrate addition measured for 1 hr
[11] = target: Ubiquitin carboxyl-terminal hydrolase 14 (Homo sapiens) (UniProt P54578); assay: Inhibition of N-terminal 6His-tagged recombinant human USP14 (91 to 494 residues) expressed in Escherichia coli using Ub-AMC as substrate upto 100 uM
[12] = target: T1, Replicase polyprotein 1ab; assay: Inhibition of SARS-CoV-2 PL protease using Ub-AMC as substrate preincubated for 30 mins followed by substrate addition measured for 1 hr
[13] = target: Ubiquitin carboxyl-terminal hydrolase 7 (Homo sapiens) (UniProt Q93009); assay: Inhibition of N-terminal polyhis/GST-tagged full-length human USP7 (1 to 1102 residues) expressed in baculovirus infected insect cells using Ub-AMC as substrate upto 100 uM; conditions: Insect cell
[14] = system: SARS-CoV-2; assay: Selectivity ratio of EC50 for SARS-CoV-2 JN.1 infected in human Caco-2 cells expressing hTMPRSS/hACE2 to EC50 for wild-type SARS-CoV-2 WA1 infected in human Caco-2 cells expressing hTMPRSS/hACE2; format: functional
[15] = system: SARS-CoV-2; assay: Antiviral activity against SARS-CoV-2 JN.1 infected in human Caco-2 cells expressing hTMPRSS/hACE2 incubated for 48 hrs in presence of CP-100356 by crystal violet staining based analysis; format: functional, organism-based; conditions: Severe acute respiratory syndrome coronavirus 2, JN.1, Caco-2, 48 h
[16] = system: SARS-CoV-2; assay: Antiviral activity against SARS-CoV-2 XBB1.16 infected in human Caco-2 cells expressing hTMPRSS/hACE2 incubated for 48 hrs in presence of CP-100356 by crystal violet staining based analysis; format: functional, organism-based; conditions: Severe acute respiratory syndrome coronavirus 2, XBB1.16, Caco-2, 48 h
[17] = system: SARS-CoV-2; assay: Antiviral activity against wild-type SARS-CoV-2 WA1 infected in human Caco-2 cells expressing hTMPRSS/hACE2 incubated for 48 hrs in presence of CP-100356 by crystal violet staining based analysis; format: functional, organism-based; conditions: Severe acute respiratory syndrome coronavirus 2, WA1, Caco-2, 48 h
[18] = system: SARS-CoV-2; assay: Selectivity ratio of EC50 for SARS-CoV-2 XBB1.16 infected in human Caco-2 cells expressing hTMPRSS/hACE2 to EC50 for wild-type SARS-CoV-2 WA1 infected in human Caco-2 cells expressing hTMPRSS/hACE2; format: functional

Ubiquitin carboxyl-terminal hydrolase 14 (Homo sapiens), sequence (P54578 whole entry, the tested form may be a part): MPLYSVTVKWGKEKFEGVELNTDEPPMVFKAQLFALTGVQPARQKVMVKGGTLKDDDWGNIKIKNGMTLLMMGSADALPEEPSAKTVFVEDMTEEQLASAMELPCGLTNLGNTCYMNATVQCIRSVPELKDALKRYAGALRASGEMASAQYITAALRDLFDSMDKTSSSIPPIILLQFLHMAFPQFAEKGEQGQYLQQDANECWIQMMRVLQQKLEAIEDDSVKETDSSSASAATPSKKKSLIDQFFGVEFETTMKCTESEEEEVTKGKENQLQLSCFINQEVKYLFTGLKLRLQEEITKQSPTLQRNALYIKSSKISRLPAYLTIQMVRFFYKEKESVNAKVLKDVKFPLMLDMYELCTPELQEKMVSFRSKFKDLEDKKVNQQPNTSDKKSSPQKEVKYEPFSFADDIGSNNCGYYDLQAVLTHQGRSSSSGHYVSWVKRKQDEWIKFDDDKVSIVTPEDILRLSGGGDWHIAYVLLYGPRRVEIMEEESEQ
Ubiquitin carboxyl-terminal hydrolase 7 (Homo sapiens), sequence (Q93009 whole entry, looked up, the tested form may be a part): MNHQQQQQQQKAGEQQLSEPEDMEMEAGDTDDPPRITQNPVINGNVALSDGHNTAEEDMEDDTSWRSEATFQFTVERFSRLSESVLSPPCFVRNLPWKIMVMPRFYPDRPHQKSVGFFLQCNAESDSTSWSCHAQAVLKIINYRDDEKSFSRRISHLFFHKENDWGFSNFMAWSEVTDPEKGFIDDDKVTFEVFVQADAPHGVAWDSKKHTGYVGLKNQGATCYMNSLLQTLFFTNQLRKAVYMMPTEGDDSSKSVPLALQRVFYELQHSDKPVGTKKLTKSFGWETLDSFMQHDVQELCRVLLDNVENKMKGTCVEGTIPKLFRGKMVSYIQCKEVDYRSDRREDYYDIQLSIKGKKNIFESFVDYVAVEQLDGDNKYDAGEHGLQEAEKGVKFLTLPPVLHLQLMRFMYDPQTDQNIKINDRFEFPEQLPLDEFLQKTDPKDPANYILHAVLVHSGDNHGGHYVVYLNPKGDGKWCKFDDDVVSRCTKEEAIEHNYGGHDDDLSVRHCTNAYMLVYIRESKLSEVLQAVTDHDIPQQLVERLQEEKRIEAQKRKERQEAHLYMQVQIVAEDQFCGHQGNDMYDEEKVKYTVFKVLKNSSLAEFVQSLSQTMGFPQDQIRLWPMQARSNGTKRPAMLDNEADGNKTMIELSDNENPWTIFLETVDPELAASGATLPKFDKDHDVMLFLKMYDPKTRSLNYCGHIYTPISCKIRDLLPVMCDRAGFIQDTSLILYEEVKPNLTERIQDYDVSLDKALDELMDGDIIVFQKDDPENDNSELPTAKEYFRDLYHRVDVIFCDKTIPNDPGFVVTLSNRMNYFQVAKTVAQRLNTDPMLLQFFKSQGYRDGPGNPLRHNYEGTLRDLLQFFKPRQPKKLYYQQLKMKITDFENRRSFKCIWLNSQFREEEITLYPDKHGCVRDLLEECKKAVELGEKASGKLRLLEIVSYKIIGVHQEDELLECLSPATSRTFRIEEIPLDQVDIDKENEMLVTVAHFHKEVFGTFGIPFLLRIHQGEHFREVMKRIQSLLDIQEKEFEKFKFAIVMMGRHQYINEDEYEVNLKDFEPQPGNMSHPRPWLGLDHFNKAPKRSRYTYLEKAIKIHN

| SMILES | IC50 [2] [nM] | CC50 at 48 h [5] [µM] | also measured |
| --- | --- | --- | --- |
| CCn1ccc(-c2cc(-c3cnn(C)c3)cc([C@@H](C)NC(=O)c3cc(OCCN(C)C)ccc3C)c2)n1 | – | – | EC50 [1]: 420 nM |
| CCn1ccc(-c2cc(-c3cnn(C)c3)cc([C@@H](C)NC(=O)c3ccccc3CCC(=O)NNC(=O)/C=C/C(=O)N3CC(F)C3)c2)n1 | 100 | > 250 | EC50 [3]: 935 nM; half-life at 1 µM [4]: 77.9 min |
| CCn1ccc(-c2cc(-c3cnn(C)c3)cc([C@@H](C)NC(=O)c3ccccc3CCC(=O)NNC(=O)CCl)c2)n1 | 300 | – | CC50 [6]: > 250 µM |
| CCn1ccc(-c2cc(-c3cnn(C)c3)cc([C@@H](C)NC(=O)c3ccccc3CCC(=O)NNC(=O)/C=C/C(=O)NC34CC(C3)C4)c2)n1 | 100 | > 250 | EC50 [3]: 6130 nM |
| CCn1ccc(-c2cc(-c3cnn(C)c3)cc([C@@H](C)NC(=O)c3ccccc3CCC(=O)NNC(=O)C34CC(C3)C4)c2)n1 | – | > 250 | – |
| CCn1ccc(-c2cc(-c3cnn(C)c3)cc(C3(NC(=O)c4ccccc4CNC(=O)CNC(=O)/C=C/C(=O)N4CC(F)(F)C4)CC3)c2)n1 | 1600 | > 250 | – |
| CCn1ccc(-c2cc(-c3cnn(C)c3)cc([C@@H](C)NC(=O)c3ccccc3CCC(=O)NNC(=O)/C=C/C(=O)N3CC(C)(C)C3)c2)n1 | – | > 250 | Cmax [7]: < 10 ng/mL; Cmax [8]: 995 ng/mL; half-life at 1 µM [4]: 84 min; AUClast [9]: 2513 ng·h/mL |
| CCn1ccc(-c2cc(-c3cnn(C)c3)cc([C@@H](C)NC(=O)c3ccccc3CCC(=O)NNC(=O)/C=C/C(=O)N3CC(F)(F)C3)c2)n1 | 100 | – | Ki [10]: 1.36 nM; inhibition [11]: inactive; EC50 [3]: 185 nM; Ki [12]: 0.25 nM; inhibition [13]: inactive |
| CCn1ccc(-c2cc(-c3cnn(C)c3)cc([C@@H](C)NC(=O)c3ccccc3CCC(=O)NCC(=O)CF)c2)n1 | – | > 250 | – |
| C#CCNC(=O)CCc1ccccc1C(=O)N[C@H](C)c1cc(-c2cnn(C)c2)cc(-c2ccn(CC)n2)c1 | 5000 | 256 | – |
| CCn1ccc(-c2cc(-c3cnn(C)c3)cc([C@@H](C)NC(=O)c3ccccc3CCC(=O)NNC(=O)C(Cl)Cl)c2)n1 | 2200 | > 250 | – |
| CCn1ccc(-c2cc(-c3cnn(C)c3)cc([C@@H](C)NC(=O)c3ccccc3CCC(=O)NCCC#N)c2)n1 | > 10000 | 146 | – |
| C=CC(=O)NNC(=O)CCc1ccccc1C(=O)N[C@H](C)c1cc(-c2cnn(C)c2)cc(-c2ccn(CC)n2)c1 | 3100 | > 250 | – |
| CCn1ccc(-c2cc(-c3cnn(C)c3)cc([C@@H](C)NC(=O)c3ccccc3CCC(=O)NNC(C)=O)c2)n1 | – | > 250 | – |
| CCn1ccc(-c2cc(-c3cnn(C)c3)cc([C@@H](C)NC(=O)c3ccccc3CNC(=O)CNC(=O)/C=C/C(=O)N3CC(F)(F)C3)c2)n1 | 500 | > 250 | – |
| CCn1ccc(-c2cc(-c3cnn(C)c3)cc([C@@H](C)NC(=O)c3ccccc3CCC(=O)NNC(=O)/C=C/CN(C)C)c2)n1 | > 5000 | > 250 | – |
| CCOC(=O)/C=C/C(=O)NNC(=O)CCc1ccccc1C(=O)N[C@H](C)c1cc(-c2cnn(C)c2)cc(-c2ccn(CC)n2)c1 | 100 | – | – |
| CCn1ccc(-c2cc(-c3cnn(C)c3)cc([C@@H](C)NC(=O)c3ccccc3CCC(=O)NNC(=O)/C=C/C(=O)N(C)C)c2)n1 | 700 | > 250 | – |
| CCn1ccc(-c2cc(-c3cnn(C)c3)cc([C@@H](C)NC(=O)c3ccccc3CCC(=O)NNC(=O)/C=C/C(=O)N3CCC3)c2)n1 | 100 | > 250 | Cmax [7]: < 10 ng/mL; EC50 [3]: 3200 nM; t1/2 ([4]; microsomes, 1 h, 1 µM): > 145 min |
| CCn1ccc(-c2cc(-c3cnn(C)c3)cc([C@@H](C)NC(=O)c3ccccc3CCC(=O)NNC(=O)/C=C/C(=O)NC3CC3)c2)n1 | 200 | > 250 | EC50 [3]: 5200 nM; half-life at 1 µM [4]: > 145 min |
| CCOC(=O)/C=C/C(=O)NCC(=O)NCc1ccccc1C(=O)NC1(c2cc(-c3cnn(C)c3)cc(-c3ccn(CC)n3)c2)CC1 | 1100 | > 250 | – |
| CCn1ccc(-c2cc(-c3cnn(C)c3)cc([C@@H](C)NC(=O)c3ccccc3CCC(=O)NNC(=O)/C=C/C(=O)NC3CC(F)(F)C3)c2)n1 | 200 | > 250 | EC50 [3]: 2400 nM; half-life at 1 µM [4]: 78.4 min |
| CC(C)(C)[C@H](NC(=O)C(F)(F)F)C(=O)N1C[C@H]2[C@@H]([C@H]1C(=O)N[C@H](C#N)C[C@@H]1CCNC1=O)C2(C)C | – | – | Ratio EC50 [14]: 2.8; EC50 [15]: 96 nM; EC50 [16]: 37.1 nM; EC50 [17]: 33.9 nM; Ratio EC50 [18]: 1.1 |
| CCn1ccc(-c2cc(-c3cnn(C)c3)cc([C@@H](C)NC(=O)c3ccccc3CCC(=O)NNC(=O)/C=C/C(=O)OC(C)(C)C)c2)n1 | 100 | – | EC50 [3]: 99.2 nM |
| C=CS(=O)(=O)NNC(=O)CCc1ccccc1C(=O)N[C@H](C)c1cc(-c2cnn(C)c2)cc(-c2ccn(CC)n2)c1 | 300 | – | CC50 [6]: 31 µM |
| CCn1ccc(-c2cc(-c3cnn(C)c3)cc([C@@H](C)NC(=O)c3ccccc3CCC(=O)NNC(=O)/C=C/C(=O)N3CC(C(F)(F)F)C3)c2)n1 | 100 | – | – |
